In patent US11013780B2, “Methods of treating female infertility” (Myovant Sciences GmbH, priority 2016, dated 2021):
Like-named read-outs stand apart in the source and are kept apart here. Where a SMILES comes first, the peptide text is derived from it. [ ]: non-standard residue; d: D form. Arg(Me) = CNC(=N)NCCC[C@H](N)C(=O)O; Hyp = O=C(O)[C@@H]1C[C@@H](O)CN1; azaGly = NNC(=O)O

Tests used:
[1] = Pharmacokinetics in dogs after SC and IV administration; conditions: dog, in vivo, dogs; for AUC(0-t): read-out: AUC(0-24); for Cmax: read-out: Cmax; for bioavailability: read-out: BA (bioavailability)
Description: The PK of API-MA was studied in dogs after SC and IV administration.

CYP2C9 = CYP2C9 (Homo sapiens, UniProt P11712); experiment: Inhibition of recombinant CYP2C9; format: in vitro ADME
[2] = tested on: 127 enzyme and radio ligand binding assays; experiment: Series of 127 enzyme and radio ligand binding assays; conditions: 10 μmol/L
CYP3A4 = CYP3A4 (Homo sapiens, UniProt P08684); experiment: Inhibition of recombinant CYP3A4; format: in vitro ADME
human KISS1R = human KISS1R (Homo sapiens, UniProt Q969F8); experiment: Intracellular Ca2+ mobilization (fluorometric imaging plate reader), human KISS1R; format: cell-based; set-up: expressed in transfected cells; host or cells: Chinese hamster ovary dihydrofolate reductase negative cells
Protocol: (§1) The effects of API-MA on intracellular Ca^2+ mobilization in KISS1R-expressing recombinant cells were evaluated by performing the fluorometric imaging plate reader assay.

[3] = Pharmacokinetics in rats after SC and IV administration; conditions: rat, in vivo, rats; for AUC(0-t): read-out: AUC(0-24); for level at 5 min: read-out: C5min; for Cmax: read-out: Cmax
Protocol: The PK of API-MA was studied in rats after SC and IV administration.
The PK linearity of API-MA was also investigated in rats after IV administration. The plasma C5min and AUC(0-24) values increased dose-proportionally. […] The elimination T1/2 values were 0.4 hours at 0.01 and 0.1 mg/kg and 0.5 hours at 1 mg/kg. These findings indicate that the PK of API-FB was linear in rats after single IV administration over the dose range of 0.01 to 1 mg/kg. The greater than dose-proportional increase in the first-pass kinetics with SC administration would indicate nonlinear PK in rats after SC administration.

rat KISS1R = target: T1, rat KISS1R (Rattus norvegicus, UniProt Q924U1); experiment: Intracellular Ca2+ mobilization (fluorometric imaging plate reader), rat KISS1R; format: cell-based
T1 construct: expressed in transfected cells; host or cells: Chinese hamster ovary dihydrofolate reductase negative cells
Protocol: as §1

[4] = Pharmacokinetics in monkeys after SC and IV administration; conditions: monkey, in vivo, monkeys; for AUC(0-t): read-out: AUC(0-24); for bioavailability: read-out: BA (bioavailability); for Cmax: read-out: Cmax
Description: The PK of API-MA was studied in monkeys after SC and IV administration.

[5] = Multiple-dose PK, 2-hour SC infusion once daily for 14 days, Japanese prostate cancer patients; format: in vivo, human; conditions: for half-life / Cmax / Tmax / AUC / Vd/F / AUC(0-inf) / MRT: male, human, in vivo; for AUC: read-out: AUC (0-tau); for Vd/F: read-out: Vz/F
Protocol: It was an open-label, ascending dose study of API-MA administered via 2-hour SC infusion once daily for 14 days that was expected to suppress testosterone in Japanese hormone-naïve prostate cancer patients. Six patients received API-MA at doses of 0.5 mg (3 patients) and 1.0 mg (3 patients) a day for 14 days.
To measure plasma concentrations of API-MA, blood specimens were collected at the following times: Day 1 (predose and 2, 4, 6, 10 hours postdose); days 2, 4, 6, 8, 10, and 12 (predose); day 14 (predose and 2, 4, 6, 10, 24, 48 hours postdose); day 21; and day 28. To measure urinary excretion of API-MA, urine specimens were collected at the following times: Day 1 (predose and 0 to 4, 4 to 8, 8 to 12, 12 to 24 hours postdose) and day 14 (0 to 4, 4 to 8, 8 to 12, 12 to 24 hours postdose).

[6] = IV 1 mg/kg, read-out: T½ γ (elimination) (converted)
[7] = SC 0.1 to 10 mg/kg, read-out: Tmax, range over the tested SC doses
[8] = bolus IV 1 mg/kg, read-out: Cmax (C5 min)
[9] = Japanese prostate cancer patients, 2-hour SC infusion 0.5 mg/day, Day 1, mean
[10] = Japanese prostate cancer patients, 2-hour SC infusion 0.5 mg/day, Day 14, mean
[11] = Japanese prostate cancer patients, 2-hour SC infusion 1.0 mg/day, Day 1, mean
[12] = Japanese prostate cancer patients, 2-hour SC infusion 1.0 mg/day, Day 14, mean
[13] = sc, 0.5 mg/day, Japanese prostate cancer patients, 2-hour SC infusion 0.5 mg/day, Day 1, mean
[14] = sc, 0.5 mg/day, Japanese prostate cancer patients, 2-hour SC infusion 0.5 mg/day, Day 14, mean
[15] = sc, 1 mg/day, Japanese prostate cancer patients, 2-hour SC infusion 1.0 mg/day, Day 1, mean
[16] = sc, 1 mg/day, Japanese prostate cancer patients, 2-hour SC infusion 1.0 mg/day, Day 14, mean

Chain of human KISS1R (Q969F8 whole entry): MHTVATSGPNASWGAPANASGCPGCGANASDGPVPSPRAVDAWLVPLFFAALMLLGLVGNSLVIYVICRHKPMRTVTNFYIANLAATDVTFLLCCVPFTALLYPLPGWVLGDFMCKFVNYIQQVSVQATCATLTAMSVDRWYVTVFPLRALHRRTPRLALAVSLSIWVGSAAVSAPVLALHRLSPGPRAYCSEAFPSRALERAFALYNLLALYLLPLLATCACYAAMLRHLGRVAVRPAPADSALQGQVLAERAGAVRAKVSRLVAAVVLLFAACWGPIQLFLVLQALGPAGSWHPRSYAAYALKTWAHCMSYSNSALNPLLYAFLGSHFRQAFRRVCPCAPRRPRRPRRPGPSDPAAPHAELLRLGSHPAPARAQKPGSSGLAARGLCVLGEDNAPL
T1 sequence (Q924U1 whole entry): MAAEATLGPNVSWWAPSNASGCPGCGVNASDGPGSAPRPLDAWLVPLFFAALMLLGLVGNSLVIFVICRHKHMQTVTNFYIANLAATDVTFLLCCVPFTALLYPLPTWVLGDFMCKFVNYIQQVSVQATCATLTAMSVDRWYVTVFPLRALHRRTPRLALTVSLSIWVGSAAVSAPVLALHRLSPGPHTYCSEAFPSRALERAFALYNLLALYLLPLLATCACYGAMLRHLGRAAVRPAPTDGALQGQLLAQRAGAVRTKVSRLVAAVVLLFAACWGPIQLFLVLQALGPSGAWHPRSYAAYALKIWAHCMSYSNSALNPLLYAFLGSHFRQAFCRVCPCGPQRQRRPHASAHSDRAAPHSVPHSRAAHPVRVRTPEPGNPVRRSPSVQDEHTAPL
Chain of CYP3A4 (P08684 whole entry): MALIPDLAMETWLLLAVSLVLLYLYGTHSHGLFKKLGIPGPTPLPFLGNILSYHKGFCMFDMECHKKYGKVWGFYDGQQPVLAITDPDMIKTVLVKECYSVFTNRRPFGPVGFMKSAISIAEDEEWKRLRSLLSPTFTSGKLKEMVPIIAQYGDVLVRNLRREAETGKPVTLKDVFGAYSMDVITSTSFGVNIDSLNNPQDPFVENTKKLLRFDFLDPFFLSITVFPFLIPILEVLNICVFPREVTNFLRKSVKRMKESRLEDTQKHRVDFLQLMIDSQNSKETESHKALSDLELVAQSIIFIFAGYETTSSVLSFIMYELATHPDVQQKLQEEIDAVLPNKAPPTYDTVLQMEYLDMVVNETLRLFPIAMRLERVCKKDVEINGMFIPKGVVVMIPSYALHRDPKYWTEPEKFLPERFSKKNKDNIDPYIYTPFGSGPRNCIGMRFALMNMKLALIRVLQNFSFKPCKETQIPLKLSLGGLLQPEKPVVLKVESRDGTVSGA
Chain of CYP2C9 (P11712 whole entry): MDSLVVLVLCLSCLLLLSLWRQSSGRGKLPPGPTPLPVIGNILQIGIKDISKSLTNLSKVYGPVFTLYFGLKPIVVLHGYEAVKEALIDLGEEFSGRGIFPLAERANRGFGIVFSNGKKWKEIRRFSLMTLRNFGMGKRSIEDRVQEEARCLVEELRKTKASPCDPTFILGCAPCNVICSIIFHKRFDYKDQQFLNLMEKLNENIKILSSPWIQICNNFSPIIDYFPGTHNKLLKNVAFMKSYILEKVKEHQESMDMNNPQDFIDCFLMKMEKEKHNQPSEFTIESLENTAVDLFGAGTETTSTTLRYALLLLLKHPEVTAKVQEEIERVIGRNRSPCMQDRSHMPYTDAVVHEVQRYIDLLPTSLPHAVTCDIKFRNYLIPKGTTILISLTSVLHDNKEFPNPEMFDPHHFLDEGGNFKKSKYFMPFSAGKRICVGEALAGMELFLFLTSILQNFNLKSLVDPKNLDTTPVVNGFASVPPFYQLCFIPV

With `CC(=O)O.CNC(=N)NCCC[C@H](NC(=O)[C@H](CC(C)C)NC(=O)NNC(=O)[C@H](Cc1ccccc1)NC(=O)[C@@H](NC(=O)[C@H](CC(N)=O)NC(=O)[C@@H]1C[C@@H](O)CN1C(=O)[C@@H](Cc1ccc(O)cc1)NC(C)=O)[C@@H](C)O)C(=O)N[C@@H](Cc1c[nH]c2ccccc12)C(N)=O` [API-MA, 2-(N-Acetyl-D-tyrosyl-trans-4-hydroxy-L-prolyl-Lasparaginyl-L-threonyl-L-phenylalanyl)-hydrazinocarbonyl-L-leucyl-Nω-methyl-L-arginyl-L-tryptophanamide monoacetate] (Ac-[dY][Hyp]NTF[azaGly]L[Arg(Me)]W-NH2) the AUC(0-t) ([1]; IV 1 mg/kg) was 3090 ng·h/mL, the half-life [1, 6] was 3 h and the Cmax ([1]; SC 0.1 mg/kg, mean ± SD (n = 4)) was 86.6 ng/mL. It also gave an AUC(0-t) ([1]; SC 0.1 mg/kg) of 252 ng·h/mL, a bioavailability ([1]; SC 0.1 mg/kg) of 81.5% and an AUC(0-t) ([1]; SC 1 mg/kg) of 2600 ng·h/mL. The bioavailability ([1]; SC 1 mg/kg) was 84%, the Cmax ([1]; SC 1 mg/kg) was 883 ng/mL and the AUC(0-t) ([1]; SC 10 mg/kg) was 28600 ng·h/mL. For the same compound, the bioavailability ([1]; SC 10 mg/kg) was 92.7%, the Cmax ([1]; SC 10 mg/kg) was 8840 ng/mL and the Tmax [1, 7] was 0.8 to 1 h. For the same compound, the Cmax at 5 min [1, 8] was 4250 ng/mL, the IC50 (CYP2C9) was over 7.78 nM and the “Inhibitory effect in enzyme and receptor binding assays” value [2] was “did not show any significant inhibitory effect”. For the same compound, the IC50 (CYP3A4) was over 7.78 nM, the EC50 (human KISS1R) was 0.266 nM and the “Ratio of EC50 of API-MA to kisspeptin (45-54)” value (human KISS1R; human KISS1R) was 0.85. The AUC(0-t) ([3]; iv, 0.01 mg/kg, IV 0.01 mg/kg, PK linearity study) was 14 ng·h/mL, the AUC(0-t) ([3]; iv, 0.1 mg/kg, IV 0.1 mg/kg, PK linearity study) was 140 ng·h/mL and the AUC(0-t) ([3]; iv, 1 mg/kg, IV 1 mg/kg, PK linearity study) was 1390 ng·h/mL. The AUC(0-t) ([3]; iv, 1 mg/kg, IV 1 mg/kg) was 1460 ng·h/mL, the AUC(0-t) ([3]; sc, 1 mg/kg, SC 1 mg/kg, mean ± SD (n = 5)) was 804 ng·h/mL and the AUC(0-t) ([3]; sc, 10 mg/kg, SC 10 mg/kg, mean ± SD (n = 5)) was 309 ng·h/mL. For the same compound, the level at 5 min ([3]; IV 0.01 mg/kg, PK linearity study) was 24.1 ng/mL, the half-life ([3]; IV 0.01 mg/kg, PK linearity study, read-out: Elimination T1/2 (converted)) was 0.4 h and the level at 5 min ([3]; IV 0.1 mg/kg, PK linearity study) was 250 ng/mL. For the same compound, the half-life ([3]; IV 0.1 mg/kg, PK linearity study, read-out: Elimination T1/2 (converted)) was 0.4 h, the level at 5 min ([3]; IV 1 mg/kg, PK linearity study) was 2580 ng/mL and the Cmax at 5 min ([3]; IV 1 mg/kg, plasma concentration at 5 minutes, read-out: Cmax (C5 min)) was 2670 ng/mL. The half-life ([3]; IV 1 mg/kg, read-out: T1/2 alpha phase (converted)) was 0.5 h, the Cmax ([3]; SC 1 mg/kg, mean ± SD (n = 5)) was 381 ng/mL and the bioavailability ([3]; SC 1 mg/kg, read-out: BA (bioavailability)) was 55.3%. For the same compound, the Cmax ([3]; SC 10 mg/kg, mean ± SD (n = 5)) was 285 ng/mL, the Tmax ([3]; SC, read-out: Tmax, range over all tested SC doses) was 0.3 to 0.9 h and the EC50 (rat KISS1R) was 0.632 nM. The “Ratio of EC50 of API-MA to kisspeptin (45-54)” value (rat KISS1R; rat KISS1R) was 2.0, the AUC(0-t) ([4]; IV 1 mg/kg) was 3160 ng·h/mL and the half-life [4, 6] was 3.2 h. For the same compound, the AUC(0-t) ([4]; SC 0.1 mg/kg) was 295 ng·h/mL, the bioavailability ([4]; SC 0.1 mg/kg) was 94.9% and the Cmax ([4]; SC 0.1 mg/kg) was 123 ng/mL. It also gave an AUC(0-t) ([4]; SC 1 mg/kg) of 2790 ng·h/mL, a bioavailability ([4]; SC 1 mg/kg) of 90.1% and a Cmax ([4]; SC 1 mg/kg) of 1320 ng/mL. It also gave an AUC(0-t) ([4]; SC 10 mg/kg) of 31600 ng·h/mL, a bioavailability ([4]; SC 10 mg/kg) of 102% and a Cmax ([4]; SC 10 mg/kg) of 12100 ng/mL. The Tmax [4, 7] was 0.3 to 0.4 h, the Cmax at 5 min [4, 8] was 5030 ng/mL and the half-life ([4]; multi-exponential decline after reaching Cmax, read-out: Mean terminal elimination T1/2 (converted)) was about 2.6 h. The CL/F [5, 9] was 13.4 L/h, the λz [5, 9] was 0.200 h⁻¹ and the CL/F [5, 10] was 12.6 L/h. It also gave a λz [5, 10] of 0.198 h⁻¹, a CL/F [5, 11] of 13.6 L/h and a λz [5, 11] of 0.221 h⁻¹. For the same compound, the CL/F [5, 12] was 13.4 L/h, the λz [5, 12] was 0.205 h⁻¹ and the half-life ([5]; days 1 and 14, both doses (0.5 and 1.0 mg/day), read-out: Mean T1/2) was 3 to 4 h. It also gave a Cmax [5, 13] of 8.12 ng/mL, a Tmax [5, 13] of 2.11 h and an AUC [5, 13] of 36.5 ng·h/mL. For the same compound, the half-life ([5]; sc, 0.5 mg/day, Japanese prostate cancer patients, 2-hour SC infusion 0.5 mg/day, Day 1, mean, read-out: T1/2 (converted)) was 3.48 h, the Vd/F [5, 13] was 66.9 L and the Cmax [5, 14] was 8.13 ng/mL. It also gave a Tmax [5, 14] of 2.08 h, an AUC [5, 14] of 39.1 ng·h/mL and a half-life ([5]; sc, 0.5 mg/day, Japanese prostate cancer patients, 2-hour SC infusion 0.5 mg/day, Day 14, mean, read-out: T1/2 (converted)) of 3.5 h. It also gave a Vd/F [5, 14] of 63.5 L, a Cmax [5, 15] of 16 ng/mL and a Tmax [5, 15] of 2.11 h. The AUC [5, 15] was 70.2 ng·h/mL, the half-life ([5]; sc, 1 mg/day, Japanese prostate cancer patients, 2-hour SC infusion 1.0 mg/day, Day 1, mean, read-out: T1/2 (converted)) was 3.15 h and the Vd/F [5, 15] was 61.6 L. The Cmax [5, 16] was 15.5 ng/mL, the Tmax [5, 16] was 2.11 h and the AUC [5, 16] was 71.2 ng·h/mL. For the same compound, the half-life ([5]; sc, 1 mg/day, Japanese prostate cancer patients, 2-hour SC infusion 1.0 mg/day, Day 14, mean, read-out: T1/2 (converted)) was 3.38 h, the Vd/F [5, 16] was 65.7 L and the AUC(0-inf) ([5]; 0.5 mg/day, Day 1, mean) was 36.8 ng·h/mL. The MRT ([5]; 0.5 mg/day, Day 1, mean) was 4.78 h, the AUC(0-inf) ([5]; 1.0 mg/day, Day 1, mean) was 70.6 ng·h/mL and the MRT ([5]; 1.0 mg/day, Day 1, mean) was 4.64 h.
